Test results as given in publication PMC3073677 (Journal of molecular graphics & modelling, 2010).
Read-outs that look alike come from different tables or passages of the source.

What was measured:
[1] = molecular target: T1, human DHFR (Homo sapiens, UniProt P00374); test: Human DHFR enzyme inhibition assay; assay type: biochemical
T1 sequence (P00374 1-187): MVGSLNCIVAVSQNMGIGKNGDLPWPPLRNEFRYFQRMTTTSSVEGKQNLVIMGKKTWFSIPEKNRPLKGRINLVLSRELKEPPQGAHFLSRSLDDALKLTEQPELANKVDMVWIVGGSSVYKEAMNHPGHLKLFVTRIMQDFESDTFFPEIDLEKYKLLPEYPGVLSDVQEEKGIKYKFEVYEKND

[2] = test system: DHFR; settings: cited from earlier work

With `CCc1nc(N)nc(N)c1C#CCc1cc(OC)c(OC)c(OC)c1` [Compound 35, 2,4-diamino-5-(3-(3,4,5-trimethoxyphenyl)prop-1-ynyl)-6-ethylpyrimidine] the IC50 [1] was less than 0.1 µM.

In the case of “N-α-(4-amino-4-deoxypteroyl)-N δ-hemiphthaloyl-L-ornithine [PT523]”, the IC50 ([2]; classical inhibitors) is given as 0.0122 µM.
